Experimental findings from patent publication US20230310428A1, “EGFR INHIBITOR AND PREPARATION METHOD AND USE THEREOF” (HONGYUN BIOTECH CO., LTD., priority 2020, published 2023) are described below.

Common to all, as to test: Growth inhibitory activity of compounds on BaF3 cell lines stably transfected with kinase (MTS, 48 h)
Assay type in all cases: cell-based

The target in test [1] is T1, various mutants of kinase EGFR (BaF3 cell lines stably transfected with kinase) (Homo sapiens, UniProt P00533, T790M/C797S, form not given).
T1 construct: other: BaF3 cells stably transfected with EGFR Δ19Del/T790M/C797S; MTS, 48; other: BaF3 cell line stably transfected with EGFR Δ19Del/T790M/C7
The following applies: BaF3 cell line stably transfected with EGFR Δ19Del/T790M/C797S, read-out: Δ19Del/T790M/ C797S growth inhibitory activity IC50. The method, boiled down:
(§1)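 OD at 490 nm after 1-4 h MTS/PES incubation gave growth inhibition relative to 0.1% DMSO negative and cell-free medium blank. Compounds: 8-point 1/3 dilution from 10 µM, 48 h, 37 °C. IC50 from inhibition curves; duplicates.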

The target of test [2] is T2, various mutants of kinase EGFR (BaF3 cell lines stably transfected with kinase) (Homo sapiens, UniProt P00533, C797S/L858R/T790M).
T2 construct: expressed in transfected cells; host or cells: BaF3
T2 sequence (P00533 25-1210 T790M/C797S/L858R): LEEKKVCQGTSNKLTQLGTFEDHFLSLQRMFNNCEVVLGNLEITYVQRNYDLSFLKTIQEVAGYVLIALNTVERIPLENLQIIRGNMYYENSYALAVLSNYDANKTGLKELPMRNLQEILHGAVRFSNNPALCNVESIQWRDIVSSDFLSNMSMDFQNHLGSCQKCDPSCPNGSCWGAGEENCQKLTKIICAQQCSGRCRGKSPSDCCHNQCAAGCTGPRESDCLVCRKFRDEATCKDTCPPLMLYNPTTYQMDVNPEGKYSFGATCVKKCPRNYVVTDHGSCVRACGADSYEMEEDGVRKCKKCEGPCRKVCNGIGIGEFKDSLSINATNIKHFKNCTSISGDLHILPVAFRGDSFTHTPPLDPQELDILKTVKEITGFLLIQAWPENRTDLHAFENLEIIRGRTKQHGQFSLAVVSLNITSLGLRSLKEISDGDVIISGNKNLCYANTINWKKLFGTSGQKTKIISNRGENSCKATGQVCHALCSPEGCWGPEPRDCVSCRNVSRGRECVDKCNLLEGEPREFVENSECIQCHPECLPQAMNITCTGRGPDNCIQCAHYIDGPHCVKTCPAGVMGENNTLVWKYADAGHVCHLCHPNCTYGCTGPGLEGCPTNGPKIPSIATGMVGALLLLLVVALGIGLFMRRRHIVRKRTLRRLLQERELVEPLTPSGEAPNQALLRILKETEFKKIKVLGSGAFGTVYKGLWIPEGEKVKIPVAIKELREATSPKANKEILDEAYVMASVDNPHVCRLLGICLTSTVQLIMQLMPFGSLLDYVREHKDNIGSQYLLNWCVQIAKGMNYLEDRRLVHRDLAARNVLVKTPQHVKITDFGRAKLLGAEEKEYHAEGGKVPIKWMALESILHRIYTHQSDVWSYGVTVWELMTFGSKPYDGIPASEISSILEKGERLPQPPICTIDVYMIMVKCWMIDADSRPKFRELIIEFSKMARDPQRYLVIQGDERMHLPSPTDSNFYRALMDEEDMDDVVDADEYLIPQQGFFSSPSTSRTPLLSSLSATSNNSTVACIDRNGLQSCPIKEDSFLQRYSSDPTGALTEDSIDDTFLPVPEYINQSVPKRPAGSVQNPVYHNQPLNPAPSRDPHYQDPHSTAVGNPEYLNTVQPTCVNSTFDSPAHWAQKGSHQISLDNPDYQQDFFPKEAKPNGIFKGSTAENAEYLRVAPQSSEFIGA
The conditions noted are these: BaF3 cell line stably transfected with EGFR L858R/T790M/C797S, read-out: L858R/T790M/ C797S growth inhibitory activity IC50. The method, boiled down: as §1

The target of test [3] is T3, various mutants of kinase EGFR (BaF3 cell lines stably transfected with kinase) (Homo sapiens, UniProt P00533, T790M, form not given).
T3 construct: other: BaF3 cells stably transfected with EGFR Δ19Del/T790M; MTS, 48 h; other: BaF3 cell line stably transfected with EGFR Δ19Del/T790M; MTS, 48
T3 sequence (P00533 with tags, fused parts or gaps DEL746-750/T790M, form open): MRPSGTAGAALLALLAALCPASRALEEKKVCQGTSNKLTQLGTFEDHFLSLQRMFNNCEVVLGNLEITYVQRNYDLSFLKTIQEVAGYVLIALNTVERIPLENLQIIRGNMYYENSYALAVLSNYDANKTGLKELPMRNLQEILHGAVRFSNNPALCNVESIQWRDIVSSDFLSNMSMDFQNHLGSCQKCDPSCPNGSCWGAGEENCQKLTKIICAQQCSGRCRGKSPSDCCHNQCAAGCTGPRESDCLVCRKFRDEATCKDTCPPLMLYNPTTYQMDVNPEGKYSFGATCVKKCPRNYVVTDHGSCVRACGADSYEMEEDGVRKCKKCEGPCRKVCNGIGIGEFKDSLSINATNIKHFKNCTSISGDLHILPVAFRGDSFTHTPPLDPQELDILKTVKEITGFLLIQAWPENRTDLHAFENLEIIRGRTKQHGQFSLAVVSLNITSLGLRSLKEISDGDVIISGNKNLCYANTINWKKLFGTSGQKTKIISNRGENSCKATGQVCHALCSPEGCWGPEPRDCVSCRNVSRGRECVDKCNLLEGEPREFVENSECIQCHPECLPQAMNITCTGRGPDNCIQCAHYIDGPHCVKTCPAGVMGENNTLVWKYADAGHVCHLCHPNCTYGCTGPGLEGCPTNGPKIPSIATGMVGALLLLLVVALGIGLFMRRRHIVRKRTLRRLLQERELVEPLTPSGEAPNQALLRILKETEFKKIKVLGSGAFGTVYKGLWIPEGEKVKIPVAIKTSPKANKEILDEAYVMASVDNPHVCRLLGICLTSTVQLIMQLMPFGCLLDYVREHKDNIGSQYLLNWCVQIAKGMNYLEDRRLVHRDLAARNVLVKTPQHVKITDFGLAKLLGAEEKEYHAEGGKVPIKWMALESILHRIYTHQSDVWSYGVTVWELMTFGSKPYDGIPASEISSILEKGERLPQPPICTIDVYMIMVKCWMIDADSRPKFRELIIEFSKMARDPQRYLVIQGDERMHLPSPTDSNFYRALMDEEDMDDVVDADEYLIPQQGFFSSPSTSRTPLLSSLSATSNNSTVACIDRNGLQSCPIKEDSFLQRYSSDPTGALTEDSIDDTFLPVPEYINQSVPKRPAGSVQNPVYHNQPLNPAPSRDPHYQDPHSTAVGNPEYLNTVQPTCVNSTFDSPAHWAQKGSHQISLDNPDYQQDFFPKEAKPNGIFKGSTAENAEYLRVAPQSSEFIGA
The conditions noted are these: BaF3 cell line stably transfected with EGFR Δ19Del/T790M, read-out: Δ19Del/ T790M growth inhibitory activity IC50. The method, boiled down: as §1

Test [4] has as its target T4, various mutants of kinase EGFR (BaF3 cell lines stably transfected with kinase) (Homo sapiens, UniProt P00533).
T4 construct: other: BaF3 cells stably transfected with EGFR Δ19Del; MTS, 48 h; other: BaF3 cell line stably transfected with EGFR Δ19Del
The following applies: BaF3 cell line stably transfected with EGFR Δ19Del, read-out: Δ19Del growth inhibitory activity IC50. In outline: as §1

Test [5] deals with T5, various mutants of kinase EGFR (BaF3 cell lines stably transfected with kinase) (Homo sapiens, UniProt P00533, L858R).
T5 construct: expressed in transfected cells; host or cells: BaF3
The following applies: BaF3 cell line stably transfected with EGFR L858R, read-out: L858R growth inhibitory activity IC50. The method, boiled down: as §1

Test [6] concerns the target T6, various mutants of kinase EGFR (BaF3 cell lines stably transfected with kinase) (Homo sapiens, UniProt P00533, L858R/T790M).
T6 construct: expressed in transfected cells; host or cells: BaF3
The following applies: BaF3 cell line stably transfected with EGFR L858R/T790M, read-out: L858R/ T790M growth inhibitory activity IC50. In outline:
as §1

pIC50: −log10 of the molar value.

T4 sequence (P00533 with tags, fused parts or gaps DEL746-750): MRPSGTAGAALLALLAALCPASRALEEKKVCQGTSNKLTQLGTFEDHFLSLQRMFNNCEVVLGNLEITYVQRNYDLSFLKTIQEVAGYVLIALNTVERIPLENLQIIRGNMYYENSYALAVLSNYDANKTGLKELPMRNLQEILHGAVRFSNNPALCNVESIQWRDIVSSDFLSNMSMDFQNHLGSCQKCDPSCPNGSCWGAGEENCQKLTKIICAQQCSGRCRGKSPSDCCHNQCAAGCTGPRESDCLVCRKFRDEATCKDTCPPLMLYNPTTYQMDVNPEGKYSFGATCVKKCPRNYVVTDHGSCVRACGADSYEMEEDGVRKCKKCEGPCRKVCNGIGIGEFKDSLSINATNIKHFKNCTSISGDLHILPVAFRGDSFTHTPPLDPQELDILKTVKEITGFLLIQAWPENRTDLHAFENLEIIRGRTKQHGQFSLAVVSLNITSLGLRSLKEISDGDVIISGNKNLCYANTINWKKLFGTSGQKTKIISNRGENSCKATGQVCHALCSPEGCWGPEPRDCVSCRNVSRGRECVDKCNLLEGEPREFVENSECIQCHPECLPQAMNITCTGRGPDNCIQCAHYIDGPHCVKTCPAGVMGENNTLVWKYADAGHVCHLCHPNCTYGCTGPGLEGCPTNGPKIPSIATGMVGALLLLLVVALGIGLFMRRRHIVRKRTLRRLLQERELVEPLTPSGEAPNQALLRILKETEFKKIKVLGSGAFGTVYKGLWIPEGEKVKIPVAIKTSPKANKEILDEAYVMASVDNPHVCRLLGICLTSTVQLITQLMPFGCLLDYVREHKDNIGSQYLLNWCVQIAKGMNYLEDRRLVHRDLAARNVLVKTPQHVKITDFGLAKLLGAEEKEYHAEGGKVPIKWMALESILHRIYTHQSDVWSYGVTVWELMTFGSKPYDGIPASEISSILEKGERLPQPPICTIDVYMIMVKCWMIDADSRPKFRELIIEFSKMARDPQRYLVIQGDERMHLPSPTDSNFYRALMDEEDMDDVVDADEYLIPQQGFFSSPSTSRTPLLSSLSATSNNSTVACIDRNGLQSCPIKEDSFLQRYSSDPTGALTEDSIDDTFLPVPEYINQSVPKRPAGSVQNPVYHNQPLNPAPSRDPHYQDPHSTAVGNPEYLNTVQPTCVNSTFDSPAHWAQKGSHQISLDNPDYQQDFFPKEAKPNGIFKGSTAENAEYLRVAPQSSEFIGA
T6 sequence (P00533 25-1210 T790M/L858R): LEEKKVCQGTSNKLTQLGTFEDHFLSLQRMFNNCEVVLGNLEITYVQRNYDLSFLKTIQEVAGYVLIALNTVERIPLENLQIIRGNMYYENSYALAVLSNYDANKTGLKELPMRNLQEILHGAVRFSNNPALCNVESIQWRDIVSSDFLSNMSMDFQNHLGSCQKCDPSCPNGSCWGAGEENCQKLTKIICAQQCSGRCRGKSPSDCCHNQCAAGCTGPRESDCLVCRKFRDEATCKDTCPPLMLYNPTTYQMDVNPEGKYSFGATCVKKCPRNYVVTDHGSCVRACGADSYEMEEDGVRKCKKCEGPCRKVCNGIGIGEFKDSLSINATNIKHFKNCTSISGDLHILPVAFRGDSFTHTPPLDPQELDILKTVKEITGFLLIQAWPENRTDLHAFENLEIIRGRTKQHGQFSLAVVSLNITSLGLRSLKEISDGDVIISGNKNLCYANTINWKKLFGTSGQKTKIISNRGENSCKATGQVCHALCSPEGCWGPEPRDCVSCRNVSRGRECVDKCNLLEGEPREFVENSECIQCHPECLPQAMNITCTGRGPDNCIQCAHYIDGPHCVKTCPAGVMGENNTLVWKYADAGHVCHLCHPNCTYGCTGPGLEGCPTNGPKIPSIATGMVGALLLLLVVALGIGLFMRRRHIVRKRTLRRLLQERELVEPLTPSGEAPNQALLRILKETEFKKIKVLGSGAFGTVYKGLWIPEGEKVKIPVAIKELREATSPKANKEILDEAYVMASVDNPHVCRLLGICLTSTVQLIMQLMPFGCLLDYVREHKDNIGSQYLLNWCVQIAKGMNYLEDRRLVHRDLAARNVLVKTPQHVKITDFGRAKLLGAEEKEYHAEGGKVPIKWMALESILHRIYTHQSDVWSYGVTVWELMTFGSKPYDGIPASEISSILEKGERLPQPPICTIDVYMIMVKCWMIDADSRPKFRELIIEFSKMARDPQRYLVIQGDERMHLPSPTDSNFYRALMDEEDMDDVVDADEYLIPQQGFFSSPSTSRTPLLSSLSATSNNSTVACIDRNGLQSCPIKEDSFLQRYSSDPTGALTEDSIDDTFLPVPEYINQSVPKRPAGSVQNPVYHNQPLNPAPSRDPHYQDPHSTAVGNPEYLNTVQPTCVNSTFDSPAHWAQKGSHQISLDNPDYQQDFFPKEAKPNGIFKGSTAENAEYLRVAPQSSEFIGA

On to `COc1cc(N2CCC(N3CCN(C)CC3)CC2)c(C(C)C)cc1Nc1ncc(C#N)c(Nc2ccc3nccnc3c2N(C)S(C)(=O)=O)n1` [Compound I-345], for which the pIC50 in test [1], in test [2], in test [3], in test [4], in test [5] and in test [6] was 6.30 to 7.30 each time.

`CCc1cc(Nc2ncc(C#N)c(Nc3ccc4nccnc4c3N(C)S(C)(=O)=O)n2)ccc1N1CCC(N2CCN(C)CC2)CC1` [Compound I-346]: the pIC50 in test [1] is 6.30 to 7.30; in test [2] it was not below 7.30; in test [3], not below 7.30; in test [4], not below 7.30; in test [5], not below 7.30; in test [6] it was not below 7.30.

As to `CCc1cc(Nc2ncc(C3CC3)c(Nc3ccc4nccnc4c3N(C)S(C)(=O)=O)n2)c(OC)cc1C(=O)N1CCC(N2CCN(C)CC2)CC1` [Compound I-347], the pIC50 in test [1] is 6.30 to 7.30; in test [2] it was 6.30 to 7.30; in test [3] it was 5.60 to 6.30; in test [4], 5.60 to 6.30; in test [5], 6.30 to 7.30; in test [6], 6.30 to 7.30.

For the compound `CCc1cnc(Nc2ccc(N3CCC(N4CCN(C)CC4)CC3)c(F)c2F)nc1Nc1ccc2nccnc2c1N(C)S(C)(=O)=O` [Compound I-348], the pIC50 in test [1] was 6.30 to 7.30; in test [2] it was 6.30 to 7.30; in test [3], not below 7.30; in test [4] it was 6.30 to 7.30; in test [5], 6.30 to 7.30; in test [6], 6.30 to 7.30.

For the compound `CCc1cnc(Nc2cc(F)c(N3CCC(N4CCN(C)CC4)CC3)c(F)c2)nc1Nc1ccc2nccnc2c1N(C)S(C)(=O)=O` [Compound I-349], the pIC50 in test [1] was not below 7.30; in test [2], not below 7.30; in test [3], not below 7.30; in test [4], 6.30 to 7.30; in test [5], not below 7.30; in test [6], not below 7.30.

As for `CCc1cc(Nc2ncc(CC)c(Nc3ccc4nccnc4c3N(C)S(C)(=O)=O)n2)c(OC)cc1C(=O)N1CCC(N2CCN(C)CC2)CC1` [Compound I-350], the pIC50 in test [1], in test [2], in test [3], in test [4], in test [5] and in test [6] was 6.30 to 7.30 in each case.

`COc1ccc(N2CCC(C#N)CC2)cc1Nc1ncc(Br)c(Nc2ccc3nccnc3c2N(C)S(C)(=O)=O)n1` [Compound I-351]: the pIC50 in test [1] was 6.30 to 7.30; in test [2] it was 6.30 to 7.30; in test [3], 6.30 to 7.30; in test [4] it was 6.30 to 7.30; in test [5], 6.30 to 7.30; in test [6] it was not below 7.30.

For the compound `COc1ccc(N2CCNCC2)cc1Nc1ncc(Br)c(Nc2ccc3nccnc3c2N(C)S(C)(=O)=O)n1` [Compound I-352], the pIC50 in test [1] was 6.30 to 7.30; in test [2], 6.30 to 7.30; in test [3], 6.30 to 7.30; in test [4], 6.30 to 7.30; in test [5] it was 6.30 to 7.30; in test [6], not below 7.30.

On to `CN1CCN(C2CCN(c3ccc(Nc4ncc(Br)c(Nc5ccc6nccnc6c5N(C)S(C)(=O)=O)n4)c(F)c3F)CC2)CC1` [Compound I-353], for which the pIC50 was not below 7.30 in test [1]; not below 7.30 in test [2]; not below 7.30 in test [3]; 6.30 to 7.30 in test [4]; not below 7.30 in test [5]; not below 7.30 in test [6].

As to `CN1CCN(C2CCN(c3c(F)cc(Nc4ncc(Br)c(Nc5ccc6nccnc6c5N(C)S(C)(=O)=O)n4)cc3F)CC2)CC1` [Compound I-354], the pIC50 in test [1] was not below 7.30; in test [2], not below 7.30; in test [3], not below 7.30; in test [4], 6.30 to 7.30; in test [5] it was not below 7.30; in test [6] it was not below 7.30.

On to `CCc1cc(Nc2ncc(Br)c(Nc3ccc4nccnc4c3N(C)S(C)(=O)=O)n2)c(OC)cc1C(=O)N1CCC(N2CCN(C)CC2)CC1` [Compound I-355], for which the pIC50 in test [1] was not below 7.30; in test [2], 6.30 to 7.30; in test [3] it was 6.30 to 7.30; in test [4], 6.30 to 7.30; in test [5], 6.30 to 7.30; in test [6] it was 6.30 to 7.30.

As for `CN1CCN(C2CCN(c3ccc(Nc4ncc(Cl)c(Nc5ccc6nccnc6c5N(C)S(C)(=O)=O)n4)c(F)c3F)CC2)CC1` [Compound I-356], the pIC50 is not below 7.30 in test [1]; 6.30 to 7.30 in test [2]; 6.30 to 7.30 in test [3]; 6.30 to 7.30 in test [4]; not below 7.30 in test [5]; not below 7.30 in test [6].

With `CN1CCN(C2CCN(c3c(F)cc(Nc4ncc(Cl)c(Nc5ccc6nccnc6c5N(C)S(C)(=O)=O)n4)cc3F)CC2)CC1` [Compound I-357], the pIC50 was not below 7.30 in test [1]; not below 7.30 in test [2]; not below 7.30 in test [3]; 6.30 to 7.30 in test [4]; not below 7.30 in test [5]; not below 7.30 in test [6].

Regarding `CCc1cc(Nc2ncc(Cl)c(Nc3ccc4nccnc4c3N(C)S(C)(=O)=O)n2)c(OC)cc1C(=O)N1CCC(N2CCN(C)CC2)CC1` [Compound I-358], the pIC50 in test [1] was 6.30 to 7.30; in test [2], 6.30 to 7.30; in test [3], 6.30 to 7.30; in test [4], 5.60 to 6.30; in test [5], 6.30 to 7.30; in test [6], 6.30 to 7.30.

Turning to `CN1CCN(C2CCN(c3ccc(Nc4ncc(Br)c(Nc5ccc6nccnc6c5NS(C)(=O)=O)n4)c(F)c3F)CC2)CC1` [Compound I-359], the pIC50 in test [1], in test [2], in test [3], in test [4], in test [5] and in test [6] was not below 7.30 in each case.

For `CN1CCN(C2CCN(c3c(F)cc(Nc4ncc(Br)c(Nc5ccc6nccnc6c5NS(C)(=O)=O)n4)cc3F)CC2)CC1` [Compound I-360], the pIC50 is 6.30 to 7.30 in test [1]; 6.30 to 7.30 in test [2]; 6.30 to 7.30 in test [3]; 6.30 to 7.30 in test [4]; not below 7.30 in test [5]; not below 7.30 in test [6].

For `CCc1cc(Nc2ncc(Br)c(Nc3ccc4nccnc4c3NS(C)(=O)=O)n2)c(OC)cc1C(=O)N1CCC(N2CCN(C)CC2)CC1` [Compound I-361], the pIC50 was 5.60 to 6.30 in test [1]; 5.60 to 6.30 in test [2]; 5.60 to 6.30 in test [3]; 5.60 to 6.30 in test [4]; 5.60 to 6.30 in test [5]; 6.30 to 7.30 in test [6].

Turning to `COc1ccc(N2CCC(O)CC2)cc1Nc1ncc(C)c(Nc2ccc3nccnc3c2N(C)S(C)(=O)=O)n1` [Compound I-362], the pIC50 in test [1] is not below 7.30; in test [2], not below 7.30; in test [3], 6.30 to 7.30; in test [4], 6.30 to 7.30; in test [5], not below 7.30; in test [6], 6.30 to 7.30.

Regarding `CCc1cnc(Nc2cc(N3CCC(O)CC3)ccc2OC)nc1Nc1ccc2nccnc2c1N(C)S(C)(=O)=O` [Compound I-363], the pIC50 was not below 7.30 in test [1]; not below 7.30 in test [2]; 6.30 to 7.30 in test [3]; not below 7.30 in test [4]; not below 7.30 in test [5]; not below 7.30 in test [6].

On to `COc1ccc(N2CCC(O)CC2)cc1Nc1ncc(C(C)C)c(Nc2ccc3nccnc3c2N(C)S(C)(=O)=O)n1` [Compound I-364], for which the pIC50 is 6.30 to 7.30 in test [1]; not below 7.30 in test [2]; not below 7.30 in test [3]; not below 7.30 in test [4]; 6.30 to 7.30 in test [5]; 6.30 to 7.30 in test [6].

Take `COc1ccc(N2CCC(O)CC2)cc1Nc1ncc(C2CC2)c(Nc2ccc3nccnc3c2N(C)S(C)(=O)=O)n1` [Compound I-365]: the pIC50 in test [1] was not below 7.30; in test [2] it was not below 7.30; in test [3], 6.30 to 7.30; in test [4], 6.30 to 7.30; in test [5], not below 7.30; in test [6], not below 7.30.

For `COc1ccc(N2CCC(O)CC2)cc1Nc1ncc(OC)c(Nc2ccc3nccnc3c2N(C)S(C)(=O)=O)n1` [Compound I-366], the pIC50 in test [1] is not below 7.30; in test [2], not below 7.30; in test [3] it was 6.30 to 7.30; in test [4] it was 6.30 to 7.30; in test [5], 6.30 to 7.30; in test [6], not below 7.30.
